The test system of the series is double stranded DNA with the sequence of 5′-gctaaaaagaaagagagatcg-3′ (SEQ ID NO: 3) and its complementary strand 5′-cgatctctctttctttttagc-3′ (SEQ ID NO: 4). The experiment in a line: Measurement of Tm for determination of activity of triplet formation. The format is binding. The conditions noted are these: 7 mM sodium phosphate buffer pH 7.0, 140 mM KCl, 1.5 μM each nucleotide, UV 260 nm.

[3'-NH2-LNA] = 3'-amino-3'-deoxy-2'-O,4'-C-methylene-5-methyluridine; d = 2'-deoxy (DNA)

With “Oligonucleotide (2): 5′-tttttmtntmtmtmt-3′ (SEQ ID NO: 2), m is 5-methyl 2′-deoxycytidine, n is 3′-amino-3′-deoxy-2′-O,4′-C-methylene-5-methyluridine (TTTTTCTTTCTCTCT; sugars from the 5' end d7 [3'-NH2-LNA]1 d7, all C 5-methyl, backbone not given here; triplex-forming oligonucleotide, further chemistry not fully specified)”, the Tm by setting is: (With MgCl2 (10 mM)) 55 °C; (Without MgCl2) 44 °C.
The corresponding values for “Oligonucleotide (3): natural oligonucleotide which forms a triplet, 5′tttttmtttmtmtmt-3′ (SEQ ID NO: 5), m is 5-methyl-2′deoxycytidine (TTTTTNTTTNTNTNT; 5-methyl-2'-deoxycytidine, chemistry not fully specified)” are 44 °C and 32 °C.
